Experimental data taken from patent EP0013067A1, “Bicyclic beta-lactam antibacterial agents, their use in pharmaceutical compositions, processes for their preparation and intermediates for use in such processes” (BEECHAM GROUP PLC, priority 1978, dated 1980).

Assays:
Type in all cases: cell-based
Citrobacter freundii E8 = test: MIC, DST agar + 10% horse blood; conditions: Citrobacter freundii E8; DST agar + 10% horse blood; inoculum 0.001 ml of a 10^-2 dilution for G + ve bacteria or a 10^-4 dilution for G - ve organisms; read-out: MIC Agar
Source text: (§1) The ninimum inhibitory concentrations (MIC) cf this compound required to inhibit the growth of various bacteria are tabulated balow: […]

Enterobacter cloacae N1 [1] = test: MIC, DST agar + 10% horse blood; conditions: Enterobacter cloacae N1; DST agar + 10% horse blood; inoculum 0.001 ml of a 10^-2 dilution for G + ve bacteria or a 10^-4 dilution for G - ve organisms; read-out: MIC Agar
Source text: as §1

Klebsiella aerogenes A = test: MIC, DST agar + 10% horse blood; conditions: Klebsiella aerogenes A; DST agar + 10% horse blood; inoculum 0.001 ml of a 10^-2 dilution for G + ve bacteria or a 10^-4 dilution for G - ve organisms; read-out: MIC Agar
Source text: as §1

Proteus vulgaris W091 = test: MIC, DST agar + 10% horse blood; conditions: Proteus vulgaris W091; DST agar + 10% horse blood; inoculum 0.001 ml of a 10^-2 dilution for G + ve bacteria or a 10^-4 dilution for G - ve organisms; read-out: MIC Agar
Source text: as §1

[2] = test system: Staphylococcus aureus Russell; test: MIC, DST agar + 10% horse blood; conditions: Staphylococcus aureus Russell; DST agar + 10% horse blood; inoculum 0.001 ml of a 10^-2 dilution for G + ve bacteria or a 10^-4 dilution for G - ve organisms; read-out: MIC Agar
Source text: as §1

[3] = test system: Staphylococcus aureus Oxford; test: MIC, microtitre using Nutrient broth; conditions: Staphylococcus aureus Oxford; Microtitre using nutrient broth; inoculum 0.001 ml of a 10^-2 dilution for G + ve bacteria or a 10^-4 dilution for G - ve organisms; read-out: MIC Broth
Source text: as §1

Enterobacter cloacae N1 [4] = test: MIC, microtitre using Nutrient broth; conditions: Microtitre using nutrient broth, inoculum 0.001 ml of a 10^-2 dilution for G + ve bacteria or a 10^-4 dilution for G - ve organisms
Source text: as §1

[5] = test system: Staphylococcus aureus 1517; test: MIC, microtitre using Nutrient broth; conditions: inoculum 0.001 ml of a 10^-2 dilution for G + ve bacteria or a 10^-4 dilution for G - ve organisms
Source text: as §1

| SMILES | MIC (Citrobacter freundii E8) [µg/mL] | MIC (Enterobacter cloacae N1 [1]) [µg/mL] | MIC (Klebsiella aerogenes A) [µg/mL] | MIC (Proteus vulgaris W091) [µg/mL] | MIC [2] [µg/mL] | MIC [3] [µg/mL] | MIC (Enterobacter cloacae N1 [4]) [µg/mL] | MIC [5] [µg/mL] |
| --- | --- | --- | --- | --- | --- | --- | --- | --- |
| O=C(O)C1=C(CO)SC2CC(=O)N12 (stereo not shown) [compound 19, Sodium 2-Hydroxymethyl penem-3-carboxylate] | 10 | 50 | 10 | 50 | 2.5 | 4 | – | – |
| CC(=O)OCC1=C(C(=O)O)N2C(=O)CC2S1 (stereo not shown) [compound 21, Sodium 2-Acetoxymethyl penem-3-carboxylate] | 10 | 100 | 10 | 50 | 10 | – | 62 | 8 |
